Assay results as given in patent US4232040A, “Compositions for and a method of preventing diabetic complications” (Syntex (U.S.A.) Inc., priority 1978, dated 1980).

Assays:
Aldose reductase = target: T1, Aldose reductase (Oryctolagus cuniculus, UniProt P15122); test: Aldose reductase inhibition in vitro (rabbit lens enzyme, glyceraldehyde substrate, loss of absorbance at 340 millimicrons); type: biochemical, New Zealand rabbit; conditions: 2 min, Table I, relative to non-inhibited control (0%); for inhibition at 100 µM: molar concentration of xanthone compound 1 × 10^-4; for inhibition at 10 µM: molar concentration of xanthone compound 1 × 10^-5; for inhibition at 1 µM: molar concentration of xanthone compound 1 × 10^-6
T1 construct: Aldose reductase is isolated by homogenizing the lens in 3 volumes of water; from tissue; host or cells: lens of mature New Zealand rabbits
Protocol: In brief, a solution of the enzyme is added to an appropriately buffered solution containing glyceraldehyde. The loss of ultra violet absorbance at 340 millimicrons is indicative of the rate of reaction of the aldehyde with the enzyme as previously reported by Hayman and Kinoshita, (J. Biol. Chem: 240, 877, (1965)).
Fifty lenses are obtained from mature, New Zealand, rabbits and are immediately frozen on dry ice. Aldose reductase is isolated by homogenizing the lens in 3 volumes of water for 30 seconds in a Waring blender followed by centrifugation at 10,000 xg for 15 minutes to remove insoluble material. Saturated ammonium sulfate is added to the supernatant fluid to 40% saturation. The suspension is centrifuged after 15 minutes, and the supernatant liquid recovered. Additional protein is removed by increasing the ammonium sulfate concentration to 50%, and centrifuging the mixture. Aldose reductase is precipitated from the 50% saturated solution by the addition of powdered ammonium sulfate to 75% saturation and is recovered by centrifugation. The precipitated enzyme is assayed by following the ultraviolet absorbance at 340 millimicrons after dissolving the enzyme in 0.05 M sodium chloride. The enzyme (0.50 ml) is added to a quartz cuvette containing phosphate buffer (0.067 M, pH 6.0), NADPH (2×10^-5 M), and water to a final volume of 3 ml and the cuvette inserted in a conventional ultra-violet spectrometer. The reaction is started by the addition of substrate (glyceraldehyde) to the contents of the cuvette and is followed by the determination of loss of absorbance at 340 millimicrons for 2 minutes at 37° C. The reaction rate observed is usually linear for at least 5 minutes.
All results are shown in Tables I, II, and III as % inhibition, i.e. based on a non-inhibited control sample, no inhibition, 0%.

lens aldose reductase = conditions: in vitro studies; cited from earlier work

`CN(C)S(=O)(=O)c1ccc2oc3ccc(C(=O)O)cc3c(=O)c2c1` showed an inhibition at 100 µM (Aldose reductase) of 94%, an inhibition at 10 µM (Aldose reductase) of 87% and an inhibition at 1 µM (Aldose reductase) of 67%.
In the case of `CC(C)CN(C)S(=O)(=O)c1ccc2oc3ccc(C(=O)O)cc3c(=O)c2c1`, the inhibition at 100 µM (Aldose reductase) is reported as 95%, the inhibition at 10 µM (Aldose reductase) is reported as 75% and the inhibition at 1 µM (Aldose reductase) is reported as 25%.
With `CN(C)S(=O)(=O)c1ccc2oc3ccc(C(=O)N(CCO)CCO)cc3c(=O)c2c1` the inhibition at 100 µM (Aldose reductase) was 86%, the inhibition at 10 µM (Aldose reductase) was 64% and the inhibition at 1 µM (Aldose reductase) was 29%.
Work on `O=C(O)c1ccc2oc3ccc(S(=O)(=O)O)cc3c(=O)c2c1` [H 3 H] yielded an inhibition at 1 µM (Aldose reductase) of 0%.
For `C[C@@H]1O[C@@H](Oc2c(-c3cc(O)c(O)c(O)c3)oc3cc(O)cc(O)c3c2=O)[C@H](O)[C@H](O)[C@H]1O` [myrecetrin], the “inhibition of lens aldose reductase” value (lens aldose reductase) is given as “among the most potent”.
In the case of `O=c1c(O)c(-c2ccc(O)c(O)c2)oc2cc(O)cc(O)c12` [quercetin], the “inhibition of lens aldose reductase” value (lens aldose reductase) is given as “among the most potent”.
For `C[C@@H]1O[C@@H](Oc2c(-c3ccc(O)c(O)c3)oc3cc(O)cc(O)c3c2=O)[C@H](O)[C@H](O)[C@H]1O` [quercetrin], the “inhibition of lens aldose reductase” value (lens aldose reductase) is given as “among the most potent”.
